Test results published in publication PMC10935503 (Acta Pharmaceutica Sinica. B, 2023).
Where two headings read alike, the source gives them in different places.

Assays:
HIV-1 WT strain (IIIB) = assay: Anti-HIV-1 activity in MT-4 cells, MTT method, WT strain IIIB; assay type: cell-based
[1] = system: HIV-1 K103N + Y181C (RES056); assay: microbe, parasite or virus in culture; assay type: cell-based; conditions: for RF RES056: resistance fold, EC50 (mutant strain)/EC50 (WT strain); for SI RES056: selectivity index, ratio of CC50/EC50
HIV-1 L100I = assay: microbe, parasite or virus in culture; assay type: cell-based; conditions: for EC50: Human immunodeficiency virus 1, MT4, read-out: EC50 L100I; for RF L100I: resistance fold, EC50 (mutant strain)/EC50 (WT strain); for SI L100I: selectivity index, ratio of CC50/EC50
HIV-1 K103N = assay: microbe, parasite or virus in culture; assay type: cell-based; conditions: for RF K103N: resistance fold, EC50 (mutant strain)/EC50 (WT strain); for SI K103N: selectivity index, ratio of CC50/EC50
HIV-1 Y181C = assay: microbe, parasite or virus in culture; assay type: cell-based; conditions: for RF Y181C: resistance fold, EC50 (mutant strain)/EC50 (WT strain); for SI Y181C: selectivity index, ratio of CC50/EC50
HIV-1 Y188L = assay: microbe, parasite or virus in culture; assay type: cell-based; conditions: for RF Y188L: resistance fold, EC50 (mutant strain)/EC50 (WT strain); for SI Y188L: selectivity index, ratio of CC50/EC50
HIV-1 E138K = assay: microbe, parasite or virus in culture; assay type: cell-based; conditions: for RF E138K: resistance fold, EC50 (mutant strain)/EC50 (WT strain); for SI E138K: selectivity index, ratio of CC50/EC50
HIV-1 F227L + V106A = assay: microbe, parasite or virus in culture; assay type: cell-based; conditions: for RF F227L + V106A: resistance fold, EC50 (mutant strain)/EC50 (WT strain); for SI F227L + V106A: selectivity index, ratio of CC50/EC50
[2] = Cytotoxicity in mock-infected MT-4 cells, MTT method; assay type: cell-based; conditions: human
MT-4 cells = assay: as above; assay type: cell-based; conditions: MTT method
[3] = In vivo pharmacokinetics in SD rats; set-up: species or system Sprague–Dawley (SD) rats
[4] = system: CYP1A2, CYP2C9, CYP2C19, CYP2D6 (range over isoforms); assay: Cytochrome P450 inhibition assay, summary over isoforms; assay type: in vitro ADME; conditions: human, human liver microsomes
[5] = cited from earlier work
[6] = Human immunodeficiency virus 1, IIIB, MT4, read-out: EC50 IIIB
[7] = Human immunodeficiency virus 1, MT4, read-out: EC50 RES056
[8] = Human immunodeficiency virus 1, MT4, read-out: EC50 K103N
[9] = Human immunodeficiency virus 1, MT4, read-out: EC50 Y181C
[10] = Human immunodeficiency virus 1, MT4, read-out: EC50 Y188L
[11] = Human immunodeficiency virus 1, MT4, read-out: EC50 E138K
[12] = Human immunodeficiency virus 1, MT4, read-out: EC50 F227L + V106A
[13] = read-out: EC50 IIIB, MT-4 cells, MTT method, HIV-1 IIIB (WT)
[14] = Sprague-Dawley, rat, plasma, iv, 2 mg/kg
[15] = Sprague-Dawley, rat, plasma, po, 20 mg/kg

Row | Molecule | EC50 (HIV-1 WT strain (IIIB); [6]) | EC50 [1, 7] | RF RES056 [1] | SI RES056 [1] | EC50 (HIV-1 L100I) | RF L100I (HIV-1 L100I) | SI L100I (HIV-1 L100I) | EC50 (HIV-1 K103N; [8]) | RF K103N (HIV-1 K103N) | SI K103N (HIV-1 K103N) | EC50 (HIV-1 Y181C; [9]) | RF Y181C (HIV-1 Y181C) | SI Y181C (HIV-1 Y181C) | EC50 (HIV-1 Y188L; [10]) | RF Y188L (HIV-1 Y188L) | SI Y188L (HIV-1 Y188L) | RF E138K (HIV-1 E138K) | EC50 (HIV-1 F227L + V106A; [12]) | RF F227L + V106A (HIV-1 F227L + V106A) | CC50 at 5 days [2] | further results
1 | Cc1cc(C)c(Oc2nc(NC3CCN(Cc4ccc(S(N)(=O)=O)cc4)CC3)nc3c2SCCC3)c(C)c1 [23i, 4-((4-((4-(Mesityloxy)-7,8-dihydro-6H-thiopyrano[3,2-d]pyrimidin-2-yl)amino)piperidin-1-yl)methyl)benzenesulfonamide] | 5.43 ± 4.4 nM | 442 ± 272 nM | 81.4 | ≥ 511 | 39.2 ± 7.66 nM | 7.2 | ≥ 5765 | 6.56 ± 1.07 nM | 1.2 | ≥ 34,451 | 35.7 ± 5.75 nM | 6.6 | ≥ 6331 | 43 ± 0.26 nM | 7.9 | ≥ 5256 | 6.9 | 64.7 ± 13.3 nM | 11.9 | ≥ 226000 nM | EC50 (HIV-1 E138K; [11]): 37.6 ± 7.41 nM; SI E138K (HIV-1 E138K): ≥ 6011; SI F227L + V106A (HIV-1 F227L + V106A): ≥ 3493
2 | Cc1cc(C#N)cc(C)c1Oc1nc(NC2CCN(c3cccc(C(N)=O)c3)CC2)nc2c1SCCC2 [27b, 3-(4-((4-(4-Cyano-2,6-dimethylphenoxy)-7,8-dihydro-6H-thiopyrano[3,2-d]pyrimidin-2-yl)amino)piperidin-1-yl)benzamide] | 3.76 ± 2.29 nM | 24.5 ± 8.11 nM | 6.5 | 244 | 13.3 ± 6.79 nM | 3.5 | 450 | 5.46 nM | 1.5 | 1097 | 7.87 ± 1.84 nM | 2.1 | 761 | 7.14 ± 1.5 nM | 1.9 | 839 | 4.5 | 111 ± 11.4 nM | 29.5 | 5990 ± 2950 nM | EC50 (HIV-1 E138K; [11]): 17.1 ± 4.42 nM; SI E138K (HIV-1 E138K): 350; SI F227L + V106A (HIV-1 F227L + V106A): 54
3 | 4-((1-(4-(4-Cyano-2,6-dimethylphenoxy)-7,8-dihydro-6H-thiopyrano[3,2-d]pyrimidin-2-yl)piperidin-4-yl)amino)benzenesulfonamide [19b] | – | – | – | – | – | – | – | – | – | – | – | – | – | – | – | – | – | – | – | – | EC50 IIIB (HIV-1 WT strain (IIIB); MT-4 cells, MTT method, HIV-1 IIIB (WT)): lost potency; EC50 (HIV-1 WT strain (IIIB); [13]): > 16100 nM; CC50 (MT-4 cells): 3070 ± 300 nM
4 | Cc1cc(C#N)cc(C)c1Oc1nc(Nc2ccc(C#N)cc2)nc(N)c1Br [ETR, etravirine, reference compound] | 2.81 ± 0.47 nM | 35.2 ± 19.7 nM | 12.5 | – | 9.13 ± 6.1 nM | 3.2 | – | 3.38 ± 0.69 nM | 1.2 | – | 14.1 ± 5.72 nM | 5.0 | – | 15.4 ± 6.07 nM | 5.5 | – | – | 16.3 ± 6.24 nM | 5.8 | 2200 ± 15 nM | V (iv) ([3]; SD rats, iv 2 mg/kg, mean ± SD, n = 3): 8.85 ± 1.17 L/kg; AUC(0-inf) [3, 14]: 587 ± 48 ng·h/mL; AUC(0-t) [3, 14]: 576 ± 45 ng·h/mL; MRT inf [3, 14]: 1.1 ± 0.34 h; MRT last [3, 14]: 0.93 ± 0.23 h; clearance [3, 14]: 57 mL/min/kg; half-life [3, 14]: 1.8 ± 0.24 h; bioavailability ([3]; Sprague-Dawley, rat, plasma, oral, 20 mg/kg): 7.17%; AUC(0-inf) [3, 15]: 421 ± 153 ng·h/mL; AUC(0-t) [3, 15]: 395 ± 139 ng·h/mL; Cmax [3, 15]: 110 ± 34.1 ng/mL; MRT inf [3, 15]: 3.03 ± 0.14 h; MRT last [3, 15]: 2.55 ± 0.04 h; Tmax [3, 15]: 1 h; half-life [3, 15]: 1.82 ± 0.07 h; IC50 at 10 min [4]: 277 to 12000 nM; Water solubility (Sol.) [5]: < 1 µg/mL; solubility (physchem; pH 7, aqueous buffer): < 1 µg/mL; solubility (physchem; pH 7.4, aqueous buffer): < 1 µg/mL
5 | Cc1ccnc2c1NC(=O)c1cccnc1N2C1CC1 [NVP, reference compound] | – | – | 18.8 | – | – | – | – | – | 30.0 | – | – | 32.0 | – | – | 37.4 | – | 1.3 | – | 30.0 | – | EC50 (HIV-1 WT strain (IIIB); [13]): 118 ± 66.9 nM; EC50 ([1]; read-out: EC50 RES056, MT-4 cells, MTT method, RES056 (K103N + Y181C)): 2220 ± 736 nM; EC50 (HIV-1 K103N; read-out: EC50 K103N, MT-4 cells, MTT method): 3550 ± 2410 nM; EC50 (HIV-1 Y181C; read-out: EC50 Y181C, MT-4 cells, MTT method): 3780 ± 2580 nM; EC50 (HIV-1 Y188L; read-out: EC50 Y188L, MT-4 cells, MTT method): 4420 ± 2470 nM; EC50 (HIV-1 E138K; read-out: EC50 E138K, MT-4 cells, MTT method): 158 ± 112 nM; EC50 (HIV-1 F227L + V106A; read-out: EC50 F227L + V106A, MT-4 cells, MTT method): 3540 ± 2750 nM; CC50 (MT-4 cells): > 15000 nM
